Key:
AMBEL (Ragweed, Common) = assay: Preemergence herbicidal evaluation; format: in vivo, Ambrosia artemisifolia; details: rated 4-5 weeks after treatment, rating scale 0-9
How it was run: (§1)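 In this greenhouse assay, monocot and dicot seeds are planted in soil and treated prior to emergence with an aqueous acetone spray (about 0.0156-0.500 kg/ha). Plants are assessed visually against control on a 0-9 scale after 4-5 weeks.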

ZEAMX (Corn, Field) [1] = assay: Preemergence herbicidal evaluation; format: in vivo, Zea mays; details: rated 4-5 weeks after treatment, rating scale 0-9
How it was run: as §1

GALAP (Galium) = assay: Postemergence herbicidal evaluation; format: in vivo, Galium aparine; details: postemergence
How it was run: (§2)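 Two-week seedlings sprayed postemergence at 40 psi; formulation: 1:1 acetone/water, 0.5% TWEEN 20; application ≈0.0156–0.500 kg/ha. Greenhouse grow-out, then 0–9 visual scoring at 4–5 weeks.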

[2] = system: IPOHE (Morningglory, Ivyleaf); assay: Preemergence herbicidal evaluation; format: in vivo, Ipomoea hederacea; details: rated 4-5 weeks after treatment, rating scale 0-9
How it was run: as §1

CYPSE (Flatsedge) = assay: Preemergence weed control under flooded paddy conditions; format: in vivo, Cyperus serotinus; details: rated 3-4 weeks after treatment
How it was run: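 Ratings on a 0-9 visual scale cover stand, vigor, malformation, size, chlorosis and overall appearance relative to a control, taken three to four weeks post-treatment. Application was into flood water over freshly sown silt loam at roughly 0.0313 to 0.500 kg/ha.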

ORYSAT (Rice, Tebonnet) = assay: Preemergence herbicidal evaluation; format: in vivo, Oryza sativa, (L.) Tebonnet; details: rated 4-5 weeks after treatment, rating scale 0-9
How it was run: as §1

[3] = system: TRZAWR (Wheat, Winter, cv Riband); assay: Preemergence herbicidal evaluation; format: in vivo, Triticum aestivum; details: rated 4-5 weeks after treatment, rating scale 0-9
How it was run: as §1

CASOB (Sicklepod) = assay: Postemergence herbicidal evaluation; format: in vivo, Cassia obtusifolia; details: postemergence
How it was run: as §2

CYPIR (Rice Flatsedge) = assay: Preemergence weed control under flooded paddy conditions; format: in vivo, Cyperus iria; details: rated 3-4 weeks after treatment
How it was run: (§3)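 Flooded-pot preemergence screen with silt loam and seeds in the upper 0.5 cm. Dose about 0.0313 to 0.500 kg/ha, delivered into flood water; visual 0-9 score after 3 to 4 weeks.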

[4] = system: ECHORC (Watergrass (Calif.)); assay: as above; format: in vivo, Echinochloa oryzoides; details: rated 3-4 weeks after treatment
How it was run: as §3

ZEAMX (Corn, Field) [5] = assay: Postemergence herbicidal evaluation; format: in vivo, Zea mays; details: postemergence
How it was run: as §2

[6] = system: CHEAL (Lambsquarters, Common); assay: Preemergence herbicidal evaluation; format: in vivo, Chenopodium album; details: rated 4-5 weeks after treatment, rating scale 0-9
How it was run: as §1

**Q.** What does the source list for `Cn1c(C(F)(F)F)cc(=O)n(-c2cc(N=C3SCC(=O)N3Cc3cccc(Cl)c3)c(Cl)cc2F)c1=O` [Compound 136, 3-{4-Chloro-5-{[3-(m-chlorobenzyl)-4-oxo-2-thiazolidinylidene]amino}-2-fluorophenyl}-1-methyl-6-(trifluoromethyl)-2,4(1H,3H)-pyrimidinedione]?
**A.** Preemergence herbicidal rating AMBEL (AMBEL (Ragweed, Common); rate 0.0156 kg/ha): 0.0; Preemergence herbicidal rating AMBEL (AMBEL (Ragweed, Common); rate 0.0313 kg/ha): 0.0; Preemergence herbicidal rating AMBEL (AMBEL (Ragweed, Common); rate 0.0625 kg/ha): 1.0; Preemergence herbicidal rating AMBEL (AMBEL (Ragweed, Common); rate 0.1250 kg/ha): 2.0; Preemergence herbicidal rating AMBEL (AMBEL (Ragweed, Common); rate 0.2500 kg/ha): 5.0; Preemergence herbicidal rating ZEAMX (ZEAMX (Corn, Field) [1]; rate 0.0156 kg/ha): 0.0; Preemergence herbicidal rating ZEAMX (ZEAMX (Corn, Field) [1]; rate 0.0313 kg/ha): 0.0; Preemergence herbicidal rating ZEAMX (ZEAMX (Corn, Field) [1]; rate 0.0625 kg/ha): 0.0; Preemergence herbicidal rating ZEAMX (ZEAMX (Corn, Field) [1]; rate 0.1250 kg/ha): 1.0; Preemergence herbicidal rating ZEAMX (ZEAMX (Corn, Field) [1]; rate 0.2500 kg/ha): 3.0; Herbicidal rating GALAP (GALAP (Galium); rate 0.0156 kg/ha): 1.0; Herbicidal rating GALAP (GALAP (Galium); rate 0.0313 kg/ha): 2.0; Herbicidal rating GALAP (GALAP (Galium); rate 0.0625 kg/ha): 3.0; Preemergence herbicidal rating IPOHE ([2]; rate 0.0156 kg/ha): 0.0; Preemergence herbicidal rating IPOHE ([2]; rate 0.0313 kg/ha): 0.0; Preemergence herbicidal rating IPOHE ([2]; rate 0.0625 kg/ha): 0.0; Preemergence herbicidal rating IPOHE ([2]; rate 0.1250 kg/ha): 0.0; Preemergence herbicidal rating IPOHE ([2]; rate 0.2500 kg/ha): 0.0; herbicidal effect rating, CYPSE (CYPSE (Flatsedge); 0.0313 kg/ha): 0.0; herbicidal effect rating, CYPSE (CYPSE (Flatsedge); 0.0625 kg/ha): 0.0; herbicidal effect rating, CYPSE (CYPSE (Flatsedge); 0.1250 kg/ha): 0.0; herbicidal effect rating, CYPSE (CYPSE (Flatsedge); 0.2500 kg/ha): 0.0; Preemergence herbicidal rating ORYSAT (ORYSAT (Rice, Tebonnet); rate 0.0156 kg/ha): 0.0; Preemergence herbicidal rating ORYSAT (ORYSAT (Rice, Tebonnet); rate 0.0313 kg/ha): 0.0; Preemergence herbicidal rating ORYSAT (ORYSAT (Rice, Tebonnet); rate 0.0625 kg/ha): 0.0; Preemergence herbicidal rating ORYSAT (ORYSAT (Rice, Tebonnet); rate 0.1250 kg/ha): 1.0; Preemergence herbicidal rating ORYSAT (ORYSAT (Rice, Tebonnet); rate 0.2500 kg/ha): 1.0; Preemergence herbicidal rating TRZAWR ([3]; rate 0.0156 kg/ha): 0.0; Preemergence herbicidal rating TRZAWR ([3]; rate 0.0313 kg/ha): 0.0; Preemergence herbicidal rating TRZAWR ([3]; rate 0.0625 kg/ha): 0.0; Preemergence herbicidal rating TRZAWR ([3]; rate 0.1250 kg/ha): 1.0; Preemergence herbicidal rating TRZAWR ([3]; rate 0.2500 kg/ha): 1.0; Herbicidal rating CASOB (CASOB (Sicklepod); rate 0.0156 kg/ha): 1.0; Herbicidal rating CASOB (CASOB (Sicklepod); rate 0.0313 kg/ha): 4.0; Herbicidal rating CASOB (CASOB (Sicklepod); rate 0.0625 kg/ha): 7.0; herbicidal effect rating, CYPIR (CYPIR (Rice Flatsedge); 0.0313 kg/ha): 0.0; herbicidal effect rating, CYPIR (CYPIR (Rice Flatsedge); 0.0625 kg/ha): 5.0; herbicidal effect rating, CYPIR (CYPIR (Rice Flatsedge); 0.1250 kg/ha): 6.0; herbicidal effect rating, CYPIR (CYPIR (Rice Flatsedge); 0.2500 kg/ha): 7.0; herbicidal effect rating, ECHORC ([4]; 0.0313 kg/ha): 7.0; herbicidal effect rating, ECHORC ([4]; 0.0625 kg/ha): 7.0; herbicidal effect rating, ECHORC ([4]; 0.1250 kg/ha): 7.0; herbicidal effect rating, ECHORC ([4]; 0.2500 kg/ha): 9.0; Herbicidal rating ZEAMX (ZEAMX (Corn, Field) [5]; rate 0.0156 kg/ha): 4.0; Herbicidal rating ZEAMX (ZEAMX (Corn, Field) [5]; rate 0.0313 kg/ha): 4.0; Herbicidal rating ZEAMX (ZEAMX (Corn, Field) [5]; rate 0.0625 kg/ha): 4.0; Preemergence herbicidal rating CHEAL ([6]; rate 0.0156 kg/ha): 2.0; Preemergence herbicidal rating CHEAL ([6]; rate 0.0313 kg/ha): 9.0; Preemergence herbicidal rating CHEAL ([6]; rate 0.0625 kg/ha): 9.0; Preemergence herbicidal rating CHEAL ([6]; rate 0.1250 kg/ha): 9.0; Preemergence herbicidal rating CHEAL ([6]; rate 0.2500 kg/ha): 9.0
